From patent US10787512B2, “Melatonin monoclonal antibody, detection, methods and uses thereof” (SALIMETRICS, LLC, priority 2013, dated 2020)

Experiments:
[1] = tested on: rabbit monoclonal antibody to Melatonin; experiment: Specificity of Salimetrics Salivary Melatonin kit, cross reactants spiked into saliva; assay type: binding; conditions: spiked into saliva up to 2000 pg/ml; melatonin EC50 (B/Bo=0.5) divided by cross reactant EC50
Description: The Salimetrics™ Salivary Melatonin kit is a competitive immunoassay designed and validated for the quantitative measurement of salivary melatonin. The assay format and detection method are illustrated in FIG. 3, and are briefly summarized as follows: A microtitre plate is coated with rabbit monoclonal antibody to melatonin. Melatonin in standards, controls and unknowns compete with melatonin linked to horseradish peroxidase for the antibody binding sites on the microplate. After incubation, unbound components are washed away. Bound melatonin peroxidase is measured by the reaction of the horseradish peroxidase enzyme with the substrate tetramethylbenzidine (TMB). This reaction produces a blue color. A yellow color is formed after stopping the reaction with 2-molar acid solution. Optical density is read on a standard microplate reader at 450 nm-630 nm. The amount of melatonin-tagged peroxidase detected, as measured by the intensity of color, is inversely proportional to the amount of melatonin present in the sample.
Step 2: Keep the desired number of strips in the strip holder and place the remaining strips back in the foil pouch. Reseal the foil pouch with unused wells and desiccant. Store at 2-8° C. […] Step 3: Pipette 8 ml of Melatonin Assay Diluent into a disposable tube. (Scale down proportionally if not using a full plate). Set aside for Step 5. Step 4: Pipette 100 μL, of standards, controls, and unknown samples into appropriate wells. Standards, controls, and unknown samples should be assayed in duplicate. • Pipette 100 μL, of Melatonin Assay Diluent into 2 wells for the 0 Standard. Step 5: Dilute the enzyme conjugate 1:500 by adding 16 μL of the conjugate to the 8 ml of melatonin assay diluent prepared in Step 3. (Scale down proportionally if not using the entire plate.) Conjugate tube may be centrifuged for a few minutes to bring the liquid down to the tube bottom. Immediately mix the diluted conjugate solution and add 50 μL to each well using a multichannel pipette. Step 6: Place adhesive cover (provided) over plate. Mix plate constantly on a plate rotator at 500 rpm and incubate at 2-8° C. for a total of 3 hours. Step 7: Wash the plate 4 times with 1× wash buffer. A plate washer is recommended. However, washing may be done by gently squirting wash buffer into each well with a squirt bottle, or by pipetting 300 μL, of wash buffer into each well and then discarding the liquid by inverting the plate over a sink. After each wash, the plate should be thoroughly blotted on paper towels before turning upright. If using a plate washer, blotting is still recommended after the last wash. Step 8: Add 100 μL of TMB substrate solution to each well with a multichannel pipette. Step 9: Incubate the plate in the dark at room temperature for 30 minutes mixing constantly on a plate rotator at 500 rpm. Step 10: Add 50 μL of 2M stop solution with a multichannel pipette. Step 11: Mix on a plate rotator for 3 minutes at 500 rpm. Spillage may occur if mixing speed exceeds 600 rpm. If green color remains, continue mixing until green color turns to yellow. Be sure all wells have turned yellow. • Wipe off bottom of plate with a water-moistened, lint-free cloth and wipe dry. • Read in a plate reader at 450 nm with a secondary filter at 620 to 630 nm. Performance characteristics are not known without secondary or reference filter. Read the plate within 10 minutes of adding 2M stop solution. High and Low salivary Melatonin controls should be run with each assay. The control ranges established are to be used as a guide. Each laboratory should establish its own range. Variations between laboratories may be caused by differences in techniques and instrumentation.
Calculations • 1. Compute the average optical density (OD) for all duplicate wells. • 2. Calculate the percent bound (B/Bo) for each standard, control and unknown by dividing the OD of each well (B) by the average OD for the 0 (Bo). • 3. […]

[2] = tested on: rabbit monoclonal antibody to Melatonin; experiment: Cross reactivity in Rapid Melatonin ELISA (competitive, melatonin-HRP); assay type: binding; conditions: tested at 10 to 20-fold above the highest standard (50 pg/ml); predicted value as melatonin divided by actual concentration added
Description: A microtitre plate (described below) is coated with the rabbit monoclonal antibody to Melatonin. Melatonin in standards and unknowns competes with Melatonin linked to horseradish peroxidase for the antibody binding sites. After incubation unbound components are washed away. Bound Melatonin peroxidase is measured by the reaction of the peroxidase enzyme on the substrate tetramethylbenzidine (TMB). This reaction produces a blue color. A yellow color is formed after stopping the reaction with 2-molar sulfuric acid. Optical density is read on a standard plate reader at 450 nm. The amount of Melatonin peroxidase detected is inversely proportional to the amount of Melatonin present.
Microwell plates (CoStar High Binder) were coated overnight with 0.5 ug/ml goat anti-rabbit at room temperature [100 uL/well]; Coating Buffer-NaHCO3 (2.93 g)+Na2CO3 (1.59 g) in 1000 ml Water, pH 9.6 under controlled humidity. After washing the plates 3 times in a wash buffer comprised of PBS (phosphate buffered saline) with 0.05% Tween 20, the plates were then coated with the rabbit monoclonal at 10 ng/ml in PBS with 0.01% BSA (bovine serum albumin) overnight at room temperature under controlled humidity. The plates were again washed and coated with 0.5% Stabilcoat (Surmodics) containing 0.1% normal rabbit serum. After approximately 2 hours the plates were aspirated, dried and pouched.
A primary dilution of Melatonin-HRP was made at 50 ug/ml in […]® Conjugate stabilizer (Pierce-Thermo) for storage. At the time of the assay, it is then diluted to 100 ng/ml in a phosphate or Tris Buffered Saline, pH 7.2 with 1% BSA (Diluent).
Melatonin reference material from Cerilliant was diluted in diluent to 50 pg/ml. The standard curve was prepared by making 2× serial dilutions to 0.78 pg/ml in Diluent. Pipette: 100 ul Melatonin Standards/Samples/Controls to each well of the coated microwell plate. Pipette: 50 ul conjugate to each well. Incubate: 3 hr at 2-8° C. or Room Temperature with shaking (˜500 rpm). Wash: 4×300 uL, no soak. Pipette: 100 uL tetramethylbenzidine (TMB). Incubate: Room Temp for 30 min with shaking. Pipette: 50 uL 2M H2SO4. Mix 10-15 seconds. Read Plate: OD 450-630 nm.
Chemical compounds with structural similarity to melatonin were tested at levels 10 to 20-fold higher than the highest standard (50 pg/ml) as samples. The predicted value (as melatonin) was divided by the actual concentration added to calculate % cross-reactivity.

[3] = Storage stability of melatonin in saliva samples; assay type: physicochemical; conditions: after 4 days at 2-8° C.
Description: Sample Handling and Preparation • After collection it is important to keep samples cold, to minimize bacterial growth in the specimen. Refrigerate sample within 30 minutes, and freeze at or below −20° C. within 4 hours of collection. […] On day of assay, thaw the saliva samples completely, vortex, and centrifuge at 1500×g (@3000 rpm) for 15 minutes. Centrifuging removes mucins and other particulate matter which may interfere with antibody binding, leading to falsely elevated results. Samples should be at room temperature before adding to assay plate. Pipette clear sample into appropriate wells. Re-freeze saliva samples as soon as possible after adding to the assay plate. Centrifuge/re-centrifuge saliva samples each time that they are thawed. Avoid more than 2 freeze-thaw cycles after the initial freeze/thaw.

SMILES: COc1ccc(NC=O)c(C(=O)CCNC(C)=O)c1 [AFMK, N^1-acetyl-N^2-formyl-5-methoxykynuramine]
- Cross Reactivity [1]: 16.5%
- Cross Reactivity (%) [2]: 16.5%

SMILES: COc1ccc2[nH]cc(CCN)c2c1 [5-methoxy tryptamine]
- Cross Reactivity [1]: <0.05%
- Cross Reactivity (%) [2]: <0.05%

SMILES: Cn1c(=O)c2c(ncn2C)n(C)c1=O [Caffeine]
- Cross Reactivity [1]: <0.05%
- Cross Reactivity (%) [2]: <0.05%

SMILES: COc1cc2c(CCNC(C)=O)c[nH]c2cc1Cl [6-chloro melatonin]
- Cross Reactivity [1]: 5.40%
- Cross Reactivity (%) [2]: 5.40%

SMILES: COc1cc2c(CCNC(C)=O)c[nH]c2cc1O [6-hydroxy melatonin]
- Cross Reactivity [1]: <0.05%
- Cross Reactivity (%) [2]: <0.05%

SMILES: COc1ccc2[nH]cc(CCNC(C)=O)c2c1 [Melatonin, N-acetyl-5-methoxytryptamine]
- Decrease of Melatonin levels [3]: ≥ 20%

SMILES: COc1ccc2[nH]cc(CCO)c2c1 [5-methoxy tryptophol]
- Cross Reactivity [1]: 1.25%
- Cross Reactivity (%) [2]: 1.30%

SMILES: CC(=O)NCCc1c[nH]c2ccc(O)cc12 [N-acetyl serotonin]
- Cross Reactivity [1]: <0.05%
- Cross Reactivity (%) [2]: <0.05%

SMILES: N[C@@H](Cc1c[nH]c2ccccc12)C(=O)O [L-Tryptophan]
- Cross Reactivity [1]: <0.05%
- Cross Reactivity (%) [2]: <0.05%

SMILES: NCCc1c[nH]c2ccc(O)cc12 [Serotonin]
- Cross Reactivity [1]: <0.05%
- Cross Reactivity (%) [2]: <0.05%
